Entries after “also recorded” stand apart in the source; their conditions may differ.

For assay [1], the system named is ArBNR1. Briefly: Luminescence (GFP-aequorin Ca2+) assay, CHO-K1 cells coexpressing ArBNR1 and Gqs5. The following applies: ArBNR1, words. The assay is classed as cell-based, Asterias rubens. The method, then: (§1) Having investigated relationships of eleven A. rubens BN-type receptor candidates (ArBNR1-11) with BN-type, ET-type, and CCHa/EP-type receptors in other taxa, ArBNR1 was identified as the best candidate and therefore this was selected for experimental testing. However, two other receptors (ArBNR2 and ArBNR3) were also tested. The methods employed for functional characterization of A. rubens neuropeptide receptors have been described previously ([57]) and a description of the methods employed in this study is included in SI Appendix, SI Methods. […]
As a complement to use of CLANS, phylogenetic trees were generated with the maximum-likelihood method (1000 bootstrap replicates) using One Step Build a ML Tree plugin in TBtools (12), specifying orexin-type receptors as an outgroup. […] Tree_B analysed the branch of tree_A containing ArBNR1; tree_C analysed the branch of tree_A containing ArBNR2; tree_D analysed the branch of tree_A containing ArBNR3; tree_E analysed the branch of tree_A containing ArBNR4, ArBNR5 and ArBNR6; tree_F analysed the branch of tree_A containing ArBNR7; tree_G analysed the branch of tree_A containing ArBNR8; tree_H analysed the branch of tree_A containing ArBNR9 and tree_I analysed the branch of tree_A containing ArBNR10 and ArBNR11. […]
(§2) identical to residues 18 - 270 of the protein XP_033631283.1, which was determined from genome […]

The subject of assay [2] is ArBNR2. The assay is described as follows: Luminescence (GFP-aequorin Ca2+) assay, CHO-K1 cells coexpressing ArBNR2 and Gqs5. The assay is classed as cell-based, Asterias rubens. The following applies: ArBNR2, words; up to 10^-5 M. The procedure:
as §1
Functional characterization of A. rubens BN-type receptors
Two cDNAs encoding ArBNR1 and ArBNR3 were cloned from A. rubens radial nerve cord cDNA using Q5 polymerase (NEB, Cat. no. M0491S) and PCR with specific primers (SI Appendix, Table S5). To facilitate expression of the cloned receptors, the forward primers were designed to contain a partial Kozak consensus sequence (ACC) before the ATG start codon. Then, PCR products were inserted into the mammalian expression vector pcDNA 3.1(+) (Invitrogen, Cat. no.
V79020) that had been cut in advance with the restriction enzyme EcoRV (NEB, Cat. no. […] Successful ligation and the direction of the insert was determined by restriction enzyme digestion and sequencing (TubeSeq service; Eurofins Genomics). […]
as §2

Consider “EPMPSSLALYIANLSP-NH2 [ArBNP65-81, C-terminally amidated 16-residue peptide predicted to be derived from residues 65 to 81 of ArBNP]”, for which the figures for the peptide-induced luminescence result in assay [1] and in assay [2] were “did not trigger luminescence; also recorded: peptide-induced luminescence was only observed with ArBN5-14” and “did not trigger luminescence”, respectively.
“NYNRVFGPTY-NH2 [ArBN5-14, C-terminally amidated 10-residue peptide corresponding to the C-terminal region of ArBN]”: the peptide-induced luminescence result in assay [2] was “did not trigger luminescence”.

The record behind these values is paper PMC12002301, “Discovery and functional characterization of a bombesin-type neuropeptide signaling system in an invertebrate” (Proceedings of the National Academy of Sciences of the …, 2025).
